From patent US10285989B2, “Pyrimidinone amide compounds as PDE2 inhibitors” (Merck Sharp & Dohme Corp., priority 2015, dated 2019)
Read-outs that look alike come from different tables or passages of the source.

Assays:
[1] = target: P-glycoprotein (P-gp, rat Mdr1a) (Rattus norvegicus, UniProt Q6PSM0); test: P-gp transport, experimental BA/AB ratio, rat LLC-Mdr1a; type: in vitro ADME; details: LLC-PK1; rat LLC-Mdrla; 1 μM substrate concentration
Text: (§1) See Doan et al. “Passive permeability and P-glycoprotein-mediated efflux differentiate central nervous system (CNS) and non-CNS marketed drugs”, J. Pharm. Exper. […] Desirable human BA/AB ratio is less than 2.0. […] See, for example, Desai, et al. Integration of in Silico and in Vitro Tools for Scaffold Optimization during Drug Discovery: Predicting P-glycoprotein Efflux” Mol. Pharmac.

[2] = target: P-glycoprotein (P-gp) (Homo sapiens (Human), UniProt P08183); test: P-gp transport, experimental BA/AB ratio, human; type: in vitro ADME; details: LLC-PK1, 1 μM substrate concentration
Chain of P-glycoprotein (P-gp) (P08183 whole entry): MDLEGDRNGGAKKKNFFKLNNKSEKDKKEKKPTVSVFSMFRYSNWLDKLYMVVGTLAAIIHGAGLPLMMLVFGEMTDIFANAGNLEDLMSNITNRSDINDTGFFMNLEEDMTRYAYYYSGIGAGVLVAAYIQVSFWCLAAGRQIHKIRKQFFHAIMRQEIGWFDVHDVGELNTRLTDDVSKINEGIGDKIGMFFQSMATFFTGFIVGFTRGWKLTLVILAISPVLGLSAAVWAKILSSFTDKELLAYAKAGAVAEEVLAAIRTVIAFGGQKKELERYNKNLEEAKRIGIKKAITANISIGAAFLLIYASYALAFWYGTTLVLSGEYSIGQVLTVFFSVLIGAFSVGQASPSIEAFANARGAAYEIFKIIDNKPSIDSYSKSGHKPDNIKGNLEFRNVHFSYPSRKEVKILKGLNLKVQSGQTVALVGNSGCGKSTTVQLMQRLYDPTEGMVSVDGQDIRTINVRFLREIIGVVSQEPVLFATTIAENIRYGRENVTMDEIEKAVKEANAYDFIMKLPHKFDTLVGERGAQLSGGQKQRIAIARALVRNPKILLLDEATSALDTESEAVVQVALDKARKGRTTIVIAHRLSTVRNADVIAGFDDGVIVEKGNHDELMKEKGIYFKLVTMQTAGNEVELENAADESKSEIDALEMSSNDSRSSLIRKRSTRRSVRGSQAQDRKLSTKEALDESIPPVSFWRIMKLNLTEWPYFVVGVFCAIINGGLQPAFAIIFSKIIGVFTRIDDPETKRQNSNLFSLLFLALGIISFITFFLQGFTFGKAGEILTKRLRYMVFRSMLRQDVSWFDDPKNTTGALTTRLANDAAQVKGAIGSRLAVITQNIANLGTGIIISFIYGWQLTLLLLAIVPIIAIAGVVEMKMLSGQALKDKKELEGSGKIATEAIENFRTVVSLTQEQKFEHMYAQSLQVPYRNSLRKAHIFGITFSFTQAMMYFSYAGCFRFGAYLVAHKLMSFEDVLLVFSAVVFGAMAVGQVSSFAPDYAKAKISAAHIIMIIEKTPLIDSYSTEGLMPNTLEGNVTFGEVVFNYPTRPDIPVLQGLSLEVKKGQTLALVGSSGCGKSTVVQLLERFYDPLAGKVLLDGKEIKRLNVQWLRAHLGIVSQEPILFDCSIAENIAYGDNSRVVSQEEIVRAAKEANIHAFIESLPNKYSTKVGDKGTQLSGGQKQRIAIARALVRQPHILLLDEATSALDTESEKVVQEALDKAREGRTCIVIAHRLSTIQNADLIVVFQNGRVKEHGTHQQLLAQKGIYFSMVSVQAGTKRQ
Text: as §1

[3] = target: human PDE2A1 (Homo sapiens (Human), UniProt O00408); test: PDE2 IMAP FP inhibition assay, human PDE2A1 (selectivity panel format); type: biochemical
Chain of human PDE2A1 (O00408 other isoform, or with tags, fused parts or gaps): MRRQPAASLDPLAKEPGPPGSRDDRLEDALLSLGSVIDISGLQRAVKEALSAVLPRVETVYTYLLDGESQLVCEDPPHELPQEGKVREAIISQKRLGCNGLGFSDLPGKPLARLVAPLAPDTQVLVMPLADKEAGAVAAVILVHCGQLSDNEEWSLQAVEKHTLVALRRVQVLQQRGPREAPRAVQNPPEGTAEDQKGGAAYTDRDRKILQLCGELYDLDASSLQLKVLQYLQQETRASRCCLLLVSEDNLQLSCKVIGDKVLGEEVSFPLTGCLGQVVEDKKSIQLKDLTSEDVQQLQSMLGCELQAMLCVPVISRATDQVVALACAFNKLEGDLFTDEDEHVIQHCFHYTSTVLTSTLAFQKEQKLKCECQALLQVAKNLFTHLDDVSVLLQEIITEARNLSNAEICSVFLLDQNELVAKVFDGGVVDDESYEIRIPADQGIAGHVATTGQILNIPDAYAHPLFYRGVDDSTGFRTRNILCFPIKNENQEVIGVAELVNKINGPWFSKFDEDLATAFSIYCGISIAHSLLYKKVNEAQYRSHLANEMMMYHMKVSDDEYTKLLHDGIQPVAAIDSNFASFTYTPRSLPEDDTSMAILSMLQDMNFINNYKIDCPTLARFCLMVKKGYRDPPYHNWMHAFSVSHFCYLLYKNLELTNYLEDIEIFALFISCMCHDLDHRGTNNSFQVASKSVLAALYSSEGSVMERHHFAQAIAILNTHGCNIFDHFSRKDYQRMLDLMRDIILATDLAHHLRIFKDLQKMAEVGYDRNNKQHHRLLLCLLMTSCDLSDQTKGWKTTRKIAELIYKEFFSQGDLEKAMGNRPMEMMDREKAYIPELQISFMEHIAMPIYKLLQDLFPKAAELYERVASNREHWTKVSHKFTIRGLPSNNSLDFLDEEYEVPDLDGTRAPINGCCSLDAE
Method in brief: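 Enzyme dosed to give about 20% substrate turnover acts for 60 min at room temperature on 50 nM FAM-cAMP plus 1000 nM cGMP (Tris pH 7.2, MgCl2, DTT, Tween-20 buffer). IMAP binding solution then stops the reaction; after 1 h, polarization is measured from parallel and perpendicular fluorescence.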

[4] = target: Rhesus PDE2A3 (Macaca mulatta, UniProt B3VTJ2); test: PDE2 fluorescence polarization (IMAP FP) inhibition assay, rhesus PDE2A3; type: biochemical, rhesus macaque
Chain of Rhesus PDE2A3 (B3VTJ2 1-941): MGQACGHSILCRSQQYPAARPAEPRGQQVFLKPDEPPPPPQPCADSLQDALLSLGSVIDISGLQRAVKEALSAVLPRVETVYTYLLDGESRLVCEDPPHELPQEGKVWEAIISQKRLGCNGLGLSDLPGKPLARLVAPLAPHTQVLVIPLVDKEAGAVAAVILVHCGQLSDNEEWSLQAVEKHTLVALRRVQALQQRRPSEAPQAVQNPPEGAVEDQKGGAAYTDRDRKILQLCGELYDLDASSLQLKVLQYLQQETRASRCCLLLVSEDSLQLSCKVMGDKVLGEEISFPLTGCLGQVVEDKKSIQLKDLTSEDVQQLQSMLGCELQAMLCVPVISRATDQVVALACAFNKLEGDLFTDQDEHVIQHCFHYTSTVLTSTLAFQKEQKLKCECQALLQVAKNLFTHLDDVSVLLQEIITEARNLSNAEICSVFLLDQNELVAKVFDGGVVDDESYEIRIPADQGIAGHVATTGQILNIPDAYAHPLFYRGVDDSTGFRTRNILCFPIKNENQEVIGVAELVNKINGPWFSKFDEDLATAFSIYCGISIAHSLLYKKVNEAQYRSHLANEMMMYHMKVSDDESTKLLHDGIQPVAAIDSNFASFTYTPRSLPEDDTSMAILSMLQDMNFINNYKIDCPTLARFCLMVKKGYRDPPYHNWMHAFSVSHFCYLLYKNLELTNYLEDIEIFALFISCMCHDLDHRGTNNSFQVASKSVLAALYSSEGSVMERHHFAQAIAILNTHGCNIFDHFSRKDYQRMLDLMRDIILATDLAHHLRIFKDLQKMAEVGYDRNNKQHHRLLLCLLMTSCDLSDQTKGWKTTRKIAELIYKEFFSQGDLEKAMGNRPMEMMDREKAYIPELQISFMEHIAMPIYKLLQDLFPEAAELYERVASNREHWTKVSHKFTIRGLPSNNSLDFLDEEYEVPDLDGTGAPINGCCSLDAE
Experimental: A Labcyte Echo 555 (Labcyte, Sunnyvale, Calif.) is used to dispense 200 nL from each well of the titration plate to the 384 well assay plate. Ten microliters of a solution of enzyme (1/2000 final dilution from aliquots; sufficient to produce 20% substrate conversion) was added to the assay plate. Next 10 uL of a separate solution of the substrate FAM-labeled cAMP (50 nM final concentration product # R^7506 from Molecular Devices) and the activator cGMP (1 uM final concentration), prepared in the assay buffer (10 mM Tris HCl, pH 7.2, 10 mM MgCl2, 0.05% NaN3 0.01% Tween-20, and 1 mM DTT) was added to the assay plate and shaken to mix. The reaction is allowed to proceed at room temperature for 60 minutes. A binding solution is then made from the kit components, comprised of 80% Solution A, 20% Solution B and binding reagent at a volume of 1/600 the total binding solution. The enzymatic reaction is stopped by addition of 60 μL of the binding solution to each well of the assay plates and the plates are sealed and shaken for 30 seconds. The plate was incubated at room temperature for at least one hour prior to determining the fluorescence polarization (FP). The parallel and perpendicular fluorescence of each well of the plate was measured using a Tecan Genios Pro plate reader (Tecan, Switzerland) or Perkin Elmer EnVision™ plate reader (Waltham, Mass.). Fluorescence polarization (mP) was calculated from the parallel (S) and perpendicular (P) fluorescence of each sample well and the analogous values for the median control well, containing only substrate (So and Po), using the following equation: Polarization (mP)=1000*(S/So−P/Po)/(S/So+P/Po).
Dose-inhibition profiles for each compound were characterized by fitting the mP data to a four-parameter equation given below.
An apparent (KM) for FAM-labeled cAMP of ˜10 uM was used.

[5] = Lab B, read-out: Human PDE2 Ki (nM) - Lab B
[6] = Lab B, read-out: Rhesus PDE2 Ki (nM) - Lab B
[7] = Lab A, read-out: Human PDE2 Ki (nM) - Lab A
[8] = Lab A, read-out: Rhesus PDE2 Ki (nM) - Lab A

Chain of P-glycoprotein (P-gp, rat Mdr1a) (Q6PSM0 1-1272): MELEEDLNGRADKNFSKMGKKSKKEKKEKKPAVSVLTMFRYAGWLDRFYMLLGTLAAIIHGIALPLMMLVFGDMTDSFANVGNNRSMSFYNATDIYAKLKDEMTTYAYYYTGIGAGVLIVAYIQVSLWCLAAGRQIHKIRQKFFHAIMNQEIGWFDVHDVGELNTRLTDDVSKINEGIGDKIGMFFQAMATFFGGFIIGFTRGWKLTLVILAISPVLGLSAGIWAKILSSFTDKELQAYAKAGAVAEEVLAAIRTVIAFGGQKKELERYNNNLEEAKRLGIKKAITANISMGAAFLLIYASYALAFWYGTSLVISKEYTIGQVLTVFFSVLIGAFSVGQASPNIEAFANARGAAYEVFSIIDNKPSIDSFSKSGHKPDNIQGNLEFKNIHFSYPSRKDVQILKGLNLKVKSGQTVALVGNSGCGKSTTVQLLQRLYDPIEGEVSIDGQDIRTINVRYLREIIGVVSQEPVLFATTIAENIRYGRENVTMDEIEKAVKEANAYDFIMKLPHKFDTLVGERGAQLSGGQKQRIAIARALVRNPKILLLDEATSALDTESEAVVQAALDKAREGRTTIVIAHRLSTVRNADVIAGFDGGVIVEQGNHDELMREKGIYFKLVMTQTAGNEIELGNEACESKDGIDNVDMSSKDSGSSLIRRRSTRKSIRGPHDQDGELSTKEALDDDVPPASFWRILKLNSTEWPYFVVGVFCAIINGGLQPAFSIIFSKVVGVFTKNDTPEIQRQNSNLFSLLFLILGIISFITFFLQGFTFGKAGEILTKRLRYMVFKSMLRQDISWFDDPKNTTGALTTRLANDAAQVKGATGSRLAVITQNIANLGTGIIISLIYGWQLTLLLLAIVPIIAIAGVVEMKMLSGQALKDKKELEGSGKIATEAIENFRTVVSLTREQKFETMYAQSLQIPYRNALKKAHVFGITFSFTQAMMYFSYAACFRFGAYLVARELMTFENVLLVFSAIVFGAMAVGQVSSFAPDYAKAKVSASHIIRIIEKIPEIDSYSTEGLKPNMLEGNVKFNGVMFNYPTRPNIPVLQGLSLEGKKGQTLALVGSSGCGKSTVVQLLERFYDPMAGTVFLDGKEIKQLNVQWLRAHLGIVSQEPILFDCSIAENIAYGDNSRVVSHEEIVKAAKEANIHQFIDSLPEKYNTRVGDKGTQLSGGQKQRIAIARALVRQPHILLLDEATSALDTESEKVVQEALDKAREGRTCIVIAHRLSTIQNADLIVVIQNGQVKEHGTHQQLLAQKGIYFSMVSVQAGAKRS

| Compound | efflux ratio at 1 μM [1] | efflux ratio at 1 μM [2] | Ki [3, 5] [nM] | Ki [4, 6] [nM] | Ki [3, 7] [nM] | Ki [4, 8] [nM] |
| --- | --- | --- | --- | --- | --- | --- |
| COCC1CCN(c2nc(C(=O)N[C@@H](c3ccc(C(F)(F)F)cc3)C(C)(C)C)cc(=O)[nH]2)C1 (single isomer, unassigned) [Example 176, (R)- or (S)-N-{(1R)-2,2-dimethyl-1-[4-(trifluoromethyl)phenyl]propyl}-2-[3-(methoxy-methyl)pyrrolidin-1-yl]-6-oxo-1,6-dihydro-pyrimidine-4-carboxamide] | 19.1 | 5.4 | 0.38 |  |  |  |
| CN(C)c1nc(C(=O)N[C@@H](c2ccc(S(F)(F)(F)(F)F)cc2)C(C)(C)C)cc(=O)[nH]1 [Example 38, 2-(dimethylamino)-N-{(1R)-2,2-dimethyl-1-[4-(pentafluoro-λ^6-sulfanyl)phenyl]propyl}-6-oxo-1,6-dihydropyrimidine-4-carboxamide] |  | 1 | 0.14 | 0.11 |  |  |
| CN(C)c1nc(C(=O)NC(C)(C)c2ccc(S(F)(F)(F)(F)F)cc2)cc(=O)[nH]1 [Example 118, 2-(Dimethylamino)-N-{1-methyl-1-[4-(pentafluoro-λ^6-sulfanyl)phenyl]ethyl}-6-oxo-1,6-dihydropyrimidine-4-carboxamide] |  |  | 140 | 224 |  |  |
| C[C@@H](NC(=O)c1cc(=O)[nH]c(N2CCOCC2)n1)c1ccc(C(F)(F)F)cc1 [Example 132, 2-morpholin-4-yl-6-oxo-N-{(1R)-1-[4-(trifluoromethyl)phenyl]ethyl}-1,6-dihydropyrimidine-4-carboxamide] |  |  |  |  | 30 | 60 |
| C[C@@H](NC(=O)c1cc(=O)[nH]c(N)n1)c1ccc(C(F)(F)F)cc1 [Example 134, 2-amino-6-oxo-N-{(1R)-1-[4-(trifluoromethyl)phenyl]ethyl}-1,6-dihydropyrimidine-4-carboxamide] |  |  |  |  | 144 | 272 |
| C[C@@H](NC(=O)c1cc(=O)[nH]c(Nc2ccccn2)n1)c1ccc(C(F)(F)F)cc1 [Example 136, 6-oxo-2-(pyridin-2-ylamino)-N-{(1R)-1-[4-(trifluoromethyl)phenyl]ethyl}-1,6-dihydropyrimidine-4-carboxamide] |  |  |  |  | 491 | 610 |
| C[C@@H](NC(=O)c1cc(=O)[nH]c(NC2CCCC2)n1)c1ccc(C(F)(F)F)cc1 [Example 139, 2-(cyclopentylamino)-6-oxo-N-{(1R)-1-[4-(trifluoromethyl)phenyl]ethyl}-1,6-dihydropyrimidine-4-carboxamide] |  |  |  |  | 56 | 109 |
| C[C@@H](NC(=O)c1cc(=O)[nH]c(NC2CC2)n1)c1ccc(C(F)(F)F)cc1 [Example 140, 2-(cyclopropylamino)-6-oxo-N-{(1R)-1-[4-(trifluoromethyl)phenyl]ethyl}-1,6-dihydropyrimidine-4-carboxamide] |  |  |  |  | 51 | 54 |
| CCN(C)c1nc(C(=O)N[C@H](C)c2ccc(C(F)(F)F)cc2)cc(=O)[nH]1 [Example 141, 2-[ethyl(methyl)amino]-6-oxo-N-{(1R)-1-[4-(trifluoromethyl)phenyl]ethyl}-1,6-dihydropyrimidine-4-carboxamide] |  |  |  |  | 6 | 10.3 |
| CCN(CC)c1nc(C(=O)N[C@H](C)c2ccc(C(F)(F)F)cc2)cc(=O)[nH]1 [Example 142, 2-(diethylamino)-6-oxo-N-{(1R)-1-[4-(trifluoromethyl)phenyl]ethyl}-1,6-dihydropyrimidine-4-carboxamide] |  |  |  |  | 16 | 23 |
| CC(C)[C@@H](NC(=O)c1cc(=O)[nH]c(N(C)C)n1)c1ccc(OC(F)(F)F)c(F)c1 [Example 149, 2-(dimethylamino)-N-{(1R)-1-[3-fluoro-4-(trifluoro-methoxy)phenyl]-2-methylpropyl}-6-oxo-1,6-dihydropyrimidine-4-carboxamide] |  |  | 0.42 | 0.51 |  | 0.48 |
| CC(C)(C)[C@@H](NC(=O)c1cc(=O)[nH]c(N)n1)c1ccc(C(F)(F)F)cc1 [Example 157, 2-amino-N-{(1R)-2,2-dimethyl-1-[4-(trifluoromethyl)phenyl]propyl}-6-oxo-1,6-dihydropyrimidine-4-carboxamide] | 34 | 13.9 | 6.3 |  |  |  |
| CNc1nc(C(=O)N[C@@H](c2ccc(C(F)(F)F)cc2)C(C)(C)C)cc(=O)[nH]1 [Example 158, N-{(1R)-2,2-dimethyl-1-[4-(trifluoromethyl)phenyl]propyl}-2-(methylamino)-6-oxo-1,6-dihydropyrimidine-4-carboxamide] | 24.4 | 7.8 | 0.85 |  |  |  |
| Cc1ncc2c(n1)CN(c1nc(C(=O)N[C@H](C)c3ccc(C(F)(F)F)cc3)cc(=O)[nH]1)C2 [Example 159, 2-(2-methyl-5,7-dihydro-6H-pyrrolo[3,4-d]pyrimidin-6-yl)-6-oxo-N-{(1R)-1-[4-(trifluoromethyl)phenyl]ethyl}-1,6-dihydropyrimidine-4-carboxamide] |  |  |  |  | 11 | 18 |
| COCCCOc1nc(C(=O)NC(C)c2ccc(C(F)(F)F)cc2)cc(=O)[nH]1 (centres unmarked) [Example 179, 2-(3-methoxypropoxy)-6-oxo-N-{1-[4-(trifluoromethyl)phenyl]ethyl}-1,6-dihydropyrimidine-4-carboxamide] |  |  |  |  | 75 | 108 |

Other lines, results leading:

| efflux ratio at 1 μM [1] | efflux ratio at 1 μM [2] | Ki [3, 5] [nM] | Ki [4, 6] [nM] | Ki [3, 7] [nM] | Ki [4, 8] [nM] | Compound |
| --- | --- | --- | --- | --- | --- | --- |
|  | 1.1 | 5.3 | 6.4 |  |  | CN(C)c1nc(C(=O)N[C@@H](c2ccc(OC(F)F)cc2)C2CC2)cc(=O)[nH]1 [Example 32, N-{(R)-cyclopropyl[4-(difluoromethoxy)phenyl]methyl}-2-(dimethylamino)-6-oxo-1,6-dropyrimidine-4-carboxamide] |
|  | 1.3 | 2 | 2.7 |  |  | CC(C)[C@@H](NC(=O)c1cc(=O)[nH]c(N(C)C)n1)c1ccc(OC(F)F)cc1 [Example 33, N-{(1R)-1-[4-(difluoromethoxy)phenyl]-2-methylpropyl}-2-(dimethylamino)-6-oxo-1,6-dihydropyrimidine-4-carboxamide] |
| 4.2 | 0.8 | 2 |  |  |  | CN(C)c1nc(C(=O)N[C@@H](c2ccc(C(F)F)c(F)c2)C2(C)CC2)cc(=O)[nH]1 [Example 59, N-[(R)-[4-(difluoromethyl)-3-fluorophenyl](1-methylcyclopropyl)methyl]-2-(dimethylamino)-6-oxo-1,6-dihydropyrimidine-4-carboxamide] |
| 10.2 | 1.7 | 1.9 |  |  |  | CC(C)[C@@H](NC(=O)c1cc(=O)[nH]c(N(C)C)n1)c1ccc(C(F)F)cc1 [Example 63, N-{(1R)-1-[4-(difluoromethyl)phenyl]-2-methylpropyl}-2-(dimethylamino)-6-oxo-1,6-dihydropyrimidine-4-carboxamide] |
| 5.6 | 0.8 | 7.4 |  |  |  | CN(C)c1nc(C(=O)N[C@@H](c2ccc(C(F)F)cc2)C2CC2)cc(=O)[nH]1 [Example 64, N-{(R)-cyclopropyl[4-(difluoromethyl)phenyl]methyl}-2-(dimethylamino)-6-oxo-1,6-dihydropyrimidine-4-carboxamide] |
| 6.1 | 0.8 | 5 |  |  |  | CN(C)c1nc(C(=O)N[C@@H](c2ccc(C(F)F)c(F)c2)C2CC2)cc(=O)[nH]1 [Example 66, N-{(R)-cyclopropyl[4-(difluoromethyl)-3-fluorophenyl]methyl}-2-(dimethylamino)-6-oxo-1,6-dihydropyrimidine-4-carboxamide] |
|  | 0.3 | 0.76 | 1 |  |  | CN(C)c1nc(C(=O)N[C@@H](c2ccc(C3CC3)cc2)C2CC2)cc(=O)[nH]1 [Example 115, N-[(R)-cyclopropyl(4-cyclopropylphenyl)methyl]-2-(dimethylamino)-6-oxo-1,6-dihydropyrimidine-4-carboxamide] |
